These results are taken from publication PMC12329412, “Study of the mass balance, biotransformation, and safety of [^14C]IBI351 in healthy Chinese subjects” (Journal of Biomedical Research, 2024).

The conditions of data set [1]: ref [11],[19]; cited from earlier work.
A short description of data set [2]: Radioactive metabolite profiling in pooled plasma, urine and feces. Type of data set: in vivo, human. The conditions noted are these: for Feces (0–192 h) % of dose: pooled feces 0–192 h; for Plasma (0–144 h) % of AUC (share of total plasma radioactivity exposure) / Plasma (0–144 h) Metabolite/parent drug (%): pooled plasma 0–144 h; for Plasma (0–144 h) Metabolite/parent drug (%): relative to the parent drug; for Feces+urine % of dose: sum of feces 0–192 h and urine 0–96 h. On the procedure: Moreover, four plasma samples at 1 h, 4 h, 48 h, and 96 h were obtained by mixing them in equal volumes. Urine samples were pooled across individuals at an equal volume to obtain one pooled sample within each time period of 0–24 h, 24–48 h, and 48–96 h. Fecal samples (0–192 h) were pooled at the same weight percentages across collection intervals for each subject. Moreover, fecal samples were pooled across individuals at an equal weight to obtain one pooled sample within each time period of 0–72 h, 72–120 h, and 120–192 h. Plasma, urine, and fecal homogenates were extracted and concentrated using organic solvents, and then the redissolved solutions were used for metabolite profile analysis. The plasma, urine, and fecal extracts were separated on HPLC columns, and the HPLC flow fractions were collected in Deepwell LumaPlateTM-96 plates at 15 s/fraction using an automatic fraction collector. The radioactivity of each fraction was quantified using a microplate detector with ARC® Convert and Evaluation software (3.0.2.379) and transformed to obtain the radioactive metabolite spectra. The radioactive metabolite spectra of each sample were integrated to acquire the peak area of each radioactive metabolite peak, the proportion of each spectral peak to the total radioactive intensity of the sample, and the proportion of the radioactivity of the major metabolites to the TRA in the corresponding blood, urine, and fecal samples. Therefore, the ratio of metabolites' concentrations to the total drug exposure (AUC) in the plasma and the ratio of each metabolite's level to the dose administered in the urine and feces were calculated. Liquid chromatography with low-energy radionuclide detection and mass spectrometry was used to identify the main metabolites in human plasma, urine, and fecal samples and to identify the possible biotransformation pathways of IBI351 in these samples.

For the molecule `C=C(F)C(=O)N1CCN(c2nc(OC[C@@H]3CCCN3C)nc3c2CCN(c2cccc4cccc(Cl)c24)C3)C[C@@H]1CC#N` [adagrasib], in data set [1], the “average time to reach Cmax” value is given as 6 h, the “plasma protein binding rate” value is given as 98%, the terminal elimination half-life is 23 h and the volume of distribution is 942 L.

On to `CC(=O)NC(CSCCC(=O)N1CCN2c3c(c(=O)n(-c4c(C)ccnc4C(C)C)c4nc(-c5c(O)cccc5F)c(Cl)cc34)N(C)C(=O)C2C1)C(=O)O` (centres unmarked) [M779], for which, in data set [2], the “Feces (0–192 h) % of dose” value was 2.59 % of dose, the “Plasma (0–144 h) % of AUC (share of total plasma radioactivity exposure)” value (shortened to “Plasma (0–144 h) % of AUC”) is reported as 0.05 % of AUC, the “Plasma (0–144 h) Metabolite/parent drug (%)” value worked out at 1.10% and the “Feces+urine % of dose” value is reported as 2.70 % of dose.

In the case of `C=CC(=O)N1CCN(c2nc(=O)n(-c3c(C)ccnc3C(C)C)c3nc(-c4c(O)cccc4F)c(F)cc23)[C@@H](C)C1` [sotorasib], in data set [1], the “average time to reach Cmax” value is on record as 1 h, the “grade of associated adverse events” value is recorded as not below 3, the terminal elimination half-life is recorded as 5 h and the volume of distribution was 211 L.

Regarding `Cc1ccnc(C(C)C)c1-n1c(=O)c2c(c3cc(Cl)c(-c4c(O)cccc4F)nc31)N1CCN(C(=O)C(O)CO)CC1C(=O)N2C` (centres unmarked) [M650], in data set [2], the “Feces (0–192 h) % of dose” value is listed as 2.47 % of dose, the “Plasma (0–144 h) Metabolite/parent drug (%)” value turned out to be 5.95% and the “Feces+urine % of dose” value is on record as 2.70 % of dose.

As to `CCC(=O)N1CCN2c3c(c(=O)n(-c4c(C)ccnc4C(C)C)c4nc(-c5c(O)cccc5F)c(Cl)cc34)N(C)C(=O)C2C1` (centres unmarked) [M618], in data set [2], the “Plasma (0–144 h) % of AUC” value is listed as 0.09 % of AUC, the “Plasma (0–144 h) Metabolite/parent drug (%)” value is reported as 1.98% and the “Feces+urine % of dose” value is on record as 0.35 % of dose.

As to `Cc1ccnc(C(C)C)c1-n1c(=O)c2c(c3cc(Cl)c(-c4c(O)cccc4F)nc31)N1CCN(C(=O)CCSCC(N)C(=O)O)CC1C(=O)N2C` (centres unmarked) [M737], in data set [2], the “Feces (0–192 h) % of dose” value is listed as 39.87 % of dose, the “Plasma (0–144 h) % of AUC” value is reported as 6.17 % of AUC, the “Plasma (0–144 h) Metabolite/parent drug (%)” value was found to be 135.90% and the “Feces+urine % of dose” value is on record as 45.36 % of dose. Moreover, the “Urine (0–96 h) % of dose” value in data set [2] (pooled urine 0–96 h) was 5.49 % of dose.
